Test [1] has as its target T1, ACE from rabbit lung (Oryctolagus cuniculus, UniProt P12822).
T1 construct: as well as ACE from rabbit lung; from tissue; host or cells: rabbit lung
Description: IC50 enzyme inhibition assay, FAPGG reporter substrate. The class given is biochemical. The conditions noted are these: concentration-response assays. On the procedure: Enzyme (NDM-1, 5 nM; VIM-2, 500 pM; CTX-M-15, 500 pM; KPC-2, 5 nM; OXA-48, 1 nM; TEM-1, 100 pM; ACE, 50 nM) was mixed with 30 μM nitrocefin (100 μM nitrocefin for TEM-1; 250 µM furanacryloyl-L-phenylalanylglycylglycine [FAPGG] for ACE^24) after a 5-10 minute preincubation with AM-A. Metallo-enzymes were supplemented with 10 μM ZnSO4. Assays were read in 96-well microplate format at 490 nm using a Spectramax reader (Molecular Devices) at 30-37° C.
E. coli strain BW25113 was modified by deletion of the bamB and tolC genes so as to increase permeability to and reduce efflux of small molecules. This strain was then further modified by the single-copy chromosomal insertion of the blaNDM-1 gene under control of the pLac promoter. Microbial natural product extracts were screened against this strain in the presence of sublethal ¼ MIC meropenem. AM-A was purified from a hit extract and its structure elucidated by NMR, mass spectrometry and polarimetry. IC50 values for AM-A were determined using nitrocefin (for MBLs and Ser BLs) and furanacryloyl-L-phenylalanylglycylglycine (for ACE)^21 as reporter substrates against the following purified enzymes: MBLs IMP-7, VIM-2, and NDM-1; SBLs CTX-M-15, KPC-2, OXA-48, and TEM-1; as well as ACE from rabbit lung. […] FIC values were determined using standard methods^27. […]

Test [2] concerns the target NDM-1 (Klebsiella pneumoniae, UniProt C7C422). As to the kind of experiment: ICP mass spectrometry of Zn in enzyme. The following applies: NDM-1 inactivated by AM-A, ICP-MS. On the procedure: Inductively coupled mass spectrometry (ICP-MS) was used to analyze the ability of AM-A to chelate Zn^66 from purified NDM-1 (27-270). The NDM-1 protein was purified as previously described^26 and freshly exchanged using a 15 kDa cutoff dialysis tubing into ICP-MS buffer (20 mM HEPES, 100 mM NaCl, pH 7.5) overnight at 4° C. in order to remove any contaminating metals. The protein was concentrated to ˜5 mg/mL and varying concentrations of AM-A were incubated with the protein samples in triplicate for 3 hours at room temperature with gentle shaking. The protein-AM-A samples were again dialyzed overnight at 4° C. into ICP-MS buffer using 12-14 kDa cutoff D-tube dialyzer mini (EMD biosciences) microdialysis cassettes. The final protein was diluted to 1 mg/mL in ICP-MS buffer, followed by a 1/40 dilution in an internal standard (10 ug/L Sc45, 1% nitric acid, Inorganic Ventures). Prior to sample analysis, the ICP MS was calibrated using a standard solution containing the metal isotopes of interest (Inorganic Ventures). […] Quantitative analysis was performed in triplicate for each sample with 60 sweeps per reading using the peak-hopping mode with a 50 ms/AMU dwell time for each element. […] Isotope abundance was determined by integrating peak areas using the NexION software program, and the data was represented graphically using Microsoft Excel.

T1 sequence (P12822 34-1310): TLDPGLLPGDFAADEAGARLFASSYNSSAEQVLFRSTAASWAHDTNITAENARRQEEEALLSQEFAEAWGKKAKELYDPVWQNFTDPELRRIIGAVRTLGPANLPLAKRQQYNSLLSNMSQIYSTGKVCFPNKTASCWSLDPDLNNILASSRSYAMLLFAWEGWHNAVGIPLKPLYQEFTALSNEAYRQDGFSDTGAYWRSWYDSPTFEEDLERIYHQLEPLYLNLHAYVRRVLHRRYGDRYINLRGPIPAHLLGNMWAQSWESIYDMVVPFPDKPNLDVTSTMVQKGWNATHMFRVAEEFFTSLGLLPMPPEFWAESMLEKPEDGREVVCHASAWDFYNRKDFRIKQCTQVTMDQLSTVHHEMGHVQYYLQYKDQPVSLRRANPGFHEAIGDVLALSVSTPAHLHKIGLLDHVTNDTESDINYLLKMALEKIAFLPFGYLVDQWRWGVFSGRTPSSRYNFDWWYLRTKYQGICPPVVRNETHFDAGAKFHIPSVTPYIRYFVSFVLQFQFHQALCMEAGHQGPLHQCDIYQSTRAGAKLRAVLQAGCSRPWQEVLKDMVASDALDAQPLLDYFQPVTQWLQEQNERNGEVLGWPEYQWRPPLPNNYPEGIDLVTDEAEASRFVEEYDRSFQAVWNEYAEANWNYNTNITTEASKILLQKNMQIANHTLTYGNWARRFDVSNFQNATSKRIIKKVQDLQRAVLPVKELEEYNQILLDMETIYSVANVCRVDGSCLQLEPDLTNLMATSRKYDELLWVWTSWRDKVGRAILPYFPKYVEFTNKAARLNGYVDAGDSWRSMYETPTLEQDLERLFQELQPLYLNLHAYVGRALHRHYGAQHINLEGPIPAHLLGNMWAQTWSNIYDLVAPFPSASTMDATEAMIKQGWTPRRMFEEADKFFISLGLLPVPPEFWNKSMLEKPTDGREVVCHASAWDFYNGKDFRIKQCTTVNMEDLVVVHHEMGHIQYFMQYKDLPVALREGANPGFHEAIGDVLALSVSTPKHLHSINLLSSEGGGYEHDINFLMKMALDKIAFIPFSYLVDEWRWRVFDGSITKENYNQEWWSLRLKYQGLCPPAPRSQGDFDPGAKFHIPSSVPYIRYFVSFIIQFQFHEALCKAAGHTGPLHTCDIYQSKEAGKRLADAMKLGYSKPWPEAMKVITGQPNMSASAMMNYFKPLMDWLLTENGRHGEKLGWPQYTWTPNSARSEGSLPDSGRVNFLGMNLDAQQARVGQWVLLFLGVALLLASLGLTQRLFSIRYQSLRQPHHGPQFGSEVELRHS
Chain of NDM-1 (C7C422 27-270 limits assumed): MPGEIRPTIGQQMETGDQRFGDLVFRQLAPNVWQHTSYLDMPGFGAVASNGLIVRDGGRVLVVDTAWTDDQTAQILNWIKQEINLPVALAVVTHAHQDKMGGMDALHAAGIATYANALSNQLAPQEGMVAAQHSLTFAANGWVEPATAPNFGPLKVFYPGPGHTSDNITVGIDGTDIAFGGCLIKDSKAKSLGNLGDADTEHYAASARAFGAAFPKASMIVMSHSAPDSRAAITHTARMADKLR

As to `N[C@H](CN[C@H](CN[C@@H](CC(=O)O)C(=O)O)C(=O)O)C(=O)O` [AM-A, aspergillomarasmine A], the “reduction of activity of rabbit lung ACE” value in test [1] is around 35%. Also, the “loss of Zn from NDM-1” value in test [2] is around 1.8 Zn equivalents.

These data come from patent US10016383B2, “Inhibitors of metallo-β-lactamase-enzymes” (McMaster University, priority 2013, dated 2018).
